Experimental findings from patent publication US20260306640A1, “TECHNOLOGIES TARGETING CELL STATES” (Auron Therapeutics, Inc., priority 2023, published 2026) are described below.

The target of this test is KAT2B (Homo sapiens, UniProt Q92831). Put plainly: Western blot of KAT2B in NCI-H1048 tumors, 168 hours post last dose. The format is in vivo. On the set-up: degrader, Western blot. Particulars: FIG. 1 (F). How it is done:
FIG. 1. Provided compounds can provide various activities including inhibiting tumor growth in vivo. (A): Provided compounds can inhibit tumor growth in vivo. Nude Balb/c mice were inoculated with NCI-H1048 cells in Matrigel. Tumors were allowed to grow up to about 200 mm^3 and mice were then randomized into two groups. Mice were dosed intraperitoneally (i.p.) once per week with vehicle or 30 mg/kg compound 22. Tumor size was measured every three to four days and mice were sacrificed once vehicle tumors reached 2000 mm^3. Error bar is SEM. Dosing started at day 17 post tumor inoculation. (B): Provided technologies can reduce KAT2A and KAT2B levels and histone acetylation levels. […] Vehicle is DMSO. […] Cell count data relative to DMSO control after 8 days of treatment with compound 22 are presented as examples to confirm inhibition. GI50=6 nM. (D): Provided technologies can inhibit tumor growth in vivo. Nude balb/c mice inoculated with H1048 tumors were dosed intraperitoneally once per week (qw i.p.) with vehicle (HbCD) or compound 22. Average tumor volumes+/−SEM from 6 mice are represented. […] See also (A). […] Certain body weights relative to starting weight are presented as examples to confirm tolerability and safety. (F): Provided technologies can reduce KAT2A and KAT2B levels and histone acetylation levels in tumor in vivo. […]

Chain of KAT2B (Q92831 whole entry): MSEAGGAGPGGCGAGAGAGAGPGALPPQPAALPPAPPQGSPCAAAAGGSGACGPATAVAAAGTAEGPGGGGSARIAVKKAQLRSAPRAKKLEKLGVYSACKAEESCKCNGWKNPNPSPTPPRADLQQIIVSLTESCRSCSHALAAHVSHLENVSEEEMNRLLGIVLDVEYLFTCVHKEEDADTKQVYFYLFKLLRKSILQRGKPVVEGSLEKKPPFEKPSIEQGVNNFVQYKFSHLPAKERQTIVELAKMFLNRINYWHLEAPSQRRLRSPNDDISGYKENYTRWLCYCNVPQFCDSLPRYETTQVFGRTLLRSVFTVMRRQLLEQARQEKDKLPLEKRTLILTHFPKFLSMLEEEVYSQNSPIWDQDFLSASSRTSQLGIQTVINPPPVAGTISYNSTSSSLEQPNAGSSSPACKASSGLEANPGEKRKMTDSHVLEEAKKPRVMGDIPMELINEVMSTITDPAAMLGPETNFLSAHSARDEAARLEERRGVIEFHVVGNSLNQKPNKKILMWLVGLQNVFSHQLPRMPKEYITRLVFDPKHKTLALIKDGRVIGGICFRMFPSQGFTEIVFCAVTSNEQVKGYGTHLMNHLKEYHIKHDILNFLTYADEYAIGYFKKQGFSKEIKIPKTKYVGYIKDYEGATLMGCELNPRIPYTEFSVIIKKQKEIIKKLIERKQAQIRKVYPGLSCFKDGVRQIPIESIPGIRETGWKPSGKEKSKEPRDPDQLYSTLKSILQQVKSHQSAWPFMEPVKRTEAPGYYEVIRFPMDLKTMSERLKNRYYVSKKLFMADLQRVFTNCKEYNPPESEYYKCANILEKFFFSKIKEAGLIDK

In the case of `CN1C[C@H](Nc2cnn(C)c(=O)c2Br)C[C@H](c2ccc(C(=O)N3CCC(CN4CCN(c5ccc6c(c5)CN(C5CCC(=O)NC5=O)C6=O)CC4)CC3)cc2)C1` (stereo partly drawn) [Compound 22, 3-(5-(4-((1-(4-((3R,5R)-5-((5-bromo-1-methyl-6-oxo-1,6-dihydropyridazin-4-yl)amino)-1-methylpiperidin-3-yl)benzoyl)piperidin-4-yl)methyl)piperazin-1-yl)-1-oxoisoindolin-2-yl)piperidine-2,6-dione], the “reduction of KAT2B in tumor” value is reported as “significant reduction”.
